Data taken from paper PMC3608651, “A Broad Profile of Co-Dominant Epitopes Shapes the Peripheral Mycobacterium tuberculosis Specific CD8+ T-Cell Immune Response in South African Patients with Active Tuberculosis” (PLoS ONE, 2013).
Like-named read-outs stand apart in the source and are kept apart here.

What was measured:
Type in all cases: binding
HLA-A*02:01 = HLA-A*02:01 (Homo sapiens, UniProt P04439, D140Y/D185E/D98H/E176V/E277Q/G131W/G231S/I119V/I121R/I166T/I218V/L300P/L318F/N151K/N90K/P208A/P217A/Q86G/Q94H/R138H/R169H/T345S)
HLA-A*24:02 = HLA-A*24:02 (Homo sapiens, UniProt P04439, D101N/D140Y/D185E/E176V/E190D/F33S/G103R/G107R/I119L/I121M/I306V/K335N/L105A/L180Q/L300P/N151K/N90K/Q86E/Q94H/R106L/R138H/R89G/T104I/T345S/V100E/W191G/Y123F); details: duplicated experiments, positive binder >40%
HLA-A*30:01 = HLA-A*30:01 (Homo sapiens, UniProt P04439, D140H/D185E/E176W/F33S/G80R/H175R/K168Q/R138E/R41S); details: duplicated experiments, positive binder >40%
HLA-A*30:02 = HLA-A*30:02 (Homo sapiens, UniProt P04439, D101N/D140H/D185E/E176R/F33S/G80R/H175R/K168Q/Q94H/R138E/R41S/V100E); details: duplicated experiments, positive binder >40%
HLA-A*68:01 = HLA-A*68:01 (Homo sapiens, UniProt P04439, A269V/D185E/E176V/E277Q/E87N/F33Y/G231S/I121M/I166T/I218V/L180W/L300P/L318F/N151K/P208A/P217A/Q86R/R169H/T345S); details: duplicated experiments, positive binder >40%
HLA-B*07:02 = HLA-B*07:02 (Homo sapiens, UniProt P01889); details: percent relative the binding of positive control peptide […]; duplicated experiments; positive binder >40%
HLA-B*58:01 = HLA-B*58:01 (Homo sapiens, UniProt P01889, A329T/C349S/D201E/D98Y/E176V/E187L/E204Q/E69T/G107R/I218V/I90N/K202T/L105A/L119I/N104I/N87E/Q89R/Q94S/R106L/R155S/R180L/R86G/S101N/S121R/S35A/S48A/T118I/V127L/V306I/V36M/Y140S/Y91M); details: duplicated experiments, positive binder >40%
HLA-C*07:01 = HLA-C*07:01 (Homo sapiens, UniProt P10321, K90N/S123Y); details: duplicated experiments, positive binder >40%
[1] = percent relative the binding of positive control peptide […], plate-bound monomer 0.5 µg/ml, duplicated experiments, positive binder >40%
[2] = percent relative the binding of positive control peptide […]

Substance | Bind A*02:01 (HLA-A*02:01; [1]) [%] | Bind A*24:02 (HLA-A*24:02; [2]) [%] | Bind A*30:01 (HLA-A*30:01; [2]) [%] | Bind A*30:02 (HLA-A*30:02; [2]) [%] | Bind A*68:01 (HLA-A*68:01; [2]) [%] | Bind B*07:02 (HLA-B*07:02) [%] | Bind B*58:01 (HLA-B*58:01; [2]) [%] | Bind C*07:01 (HLA-C*07:01; [2]) [%] | Bind A*02:01 (HLA-A*02:01; percent relative the binding of positive control peptide FLPSDFFPSV, plate-bound monomer 0.5 µg/ml, duplicated experiments, positive binder >40%) [%] | Bind A*24:02 (HLA-A*24:02; percent relative the binding of positive control peptide RYLKDQQLL) [%] | Bind A*30:01 (HLA-A*30:01; percent relative the binding of positive control peptide KTKDIVNGL) [%] | Bind A*30:02 (HLA-A*30:02; percent relative the binding of positive control peptide KIQNFRVYY) [%] | Bind A*68:01 (HLA-A*68:01; percent relative the binding of positive control peptide KTGGPIYKR) [%] | Bind B*58:01 (HLA-B*58:01; percent relative the binding of positive control peptide IAMESIVIW) [%] | Bind C*07:01 (HLA-C*07:01; percent relative the binding of positive control peptide KYFDEHYEY) [%] | Bind A*02:01 (HLA-A*02:01)
GMGPSLIGL | 84 | 53 | 16 | 46 | 0 | 5 | 9 | 35 | – | – | – | – | – | – | – | –
NT RLW V Y CG | 0 | 0 | 27 | 49 | 0 | 0 | 0 | 0 | – | – | – | – | – | – | – | –
YSDWYSPAC | 59 | 0 | 15 | 2 | 18 | 0 | 85 | 5 | – | – | – | – | – | – | – | –
IVMPVGGQS | 44 | 0 | 0 | 56 | 0 | 51 | 0 | 0 | – | – | – | – | – | – | – | –
PQWLSANRA | 52 | 75 | 36 | 13 | 13 | 14 | 0 | 2 | – | – | – | – | – | – | – | –
SGLSIVMPV | 95 | 0 | 0 | 38 | 0 | 0 | 0 | 0 | – | – | – | – | – | – | – | –
T RLW V Y CG N | 0 | 0 | 45 | 33 | 5 | 0 | 0 | 15 | – | – | – | – | – | – | – | –
VYCGNGTPN | 0 | 11 | 8 | 80 | 4 | 3 | 15 | 59 | – | – | – | – | – | – | – | –
ELPQW LSAN | 15 | 56 | 20 | 0 | 31 | 16 | 0 | 0 | – | – | – | – | – | – | – | –
LTSELPQW L | 56 | 9 | 0 | 19 | 0 | 7 | 34 | 2 | – | – | – | – | – | – | – | –
NFPPNGTHS | 14 | 0 | 11 | 43 | 0 | 0 | 26 | 0 | – | – | – | – | – | – | – | –
AGSSAMILA | 56 | 0 | 0 | 0 | 2 | 10 | 12 | 14 | – | – | – | – | – | – | – | –
LKFQDAYNA | 17 | 0 | 0 | 91 | 0 | 0 | 9 | 53 | – | – | – | – | – | – | – | –
LIGLAMGDA | 59 | 0 | 0 | 5 | 0 | 0 | 0 | 0 | – | – | – | – | – | – | – | –
THSWEYWGA | 21 | 0 | 0 | 67 | 57 | 2 | 0 | 6 | – | – | – | – | – | – | – | –
ATELNNALQ [Rv3875_62–70] | – | – | – | – | – | 12 | – | – | 8 | 13 | 16 | 45 | 5 | 4 | 8 | –

Substance | Bind A*02:01 (HLA-A*02:01; [1]) [%] | Bind A*24:02 (HLA-A*24:02; [2]) [%] | Bind A*30:01 (HLA-A*30:01; [2]) [%] | Bind A*30:02 (HLA-A*30:02; [2]) [%] | Bind A*68:01 (HLA-A*68:01; [2]) [%] | Bind B*07:02 (HLA-B*07:02) [%] | Bind B*58:01 (HLA-B*58:01; [2]) [%] | Bind C*07:01 (HLA-C*07:01; [2]) [%] | Bind A*02:01 (HLA-A*02:01; percent relative the binding of positive control peptide FLPSDFFPSV, plate-bound monomer 0.5 µg/ml, duplicated experiments, positive binder >40%) [%] | Bind A*24:02 (HLA-A*24:02; percent relative the binding of positive control peptide RYLKDQQLL) [%] | Bind A*30:01 (HLA-A*30:01; percent relative the binding of positive control peptide KTKDIVNGL) [%] | Bind A*30:02 (HLA-A*30:02; percent relative the binding of positive control peptide KIQNFRVYY) [%] | Bind A*68:01 (HLA-A*68:01; percent relative the binding of positive control peptide KTGGPIYKR) [%] | Bind B*58:01 (HLA-B*58:01; percent relative the binding of positive control peptide IAMESIVIW) [%] | Bind C*07:01 (HLA-C*07:01; percent relative the binding of positive control peptide KYFDEHYEY) [%] | Bind A*02:01 (HLA-A*02:01)
GSSAMILAA | 66 | 0 | 0 | 0 | 4 | 5 | 29 | 8 | – | – | – | – | – | – | – | –
GGANIPAEF | 4 | 0 | 0 | 70 | 0 | 0 | 57 | 5 | – | – | – | – | – | – | – | –
TSELPQW LS | 12 | 52 | 0 | 0 | 0 | 14 | 0 | 0 | – | – | – | – | – | – | – | –
VRSSNLKFQ | 5 | 23 | 0 | 0 | 14 | 10 | 7 | 61 | – | – | – | – | – | – | – | –
SFYSDW YSP | 7 | 0 | 0 | 77 | 0 | 0 | 0 | 0 | – | – | – | – | – | – | – | –
VYLLDGLRA | 86 | 87 | 0 | 98 | 13 | 0 | 0 | 9 | – | – | – | – | – | – | – | –
DAYNAAGGH | 4 | 14 | 8 | 18 | 64 | 12 | 29 | 16 | – | – | – | – | – | – | – | –
FLENFVRSS | 77 | 5 | 0 | 0 | 7 | 0 | 0 | 5 | – | – | – | – | – | – | – | –
SLIGLAMGD | – | 0 | 0 | 47 | 0 | 3 | 0 | 0 | – | – | – | – | – | – | – | 57
NAAGGHNAV | 39 | 0 | 27 | 2 | 28 | 16 | 43 | 5 | – | – | – | – | – | – | – | –
NNTRLW VYC | 0 | 3 | 19 | 89 | 4 | 4 | 11 | 20 | – | – | – | – | – | – | – | –
GTPNELGGA | 49 | 0 | 0 | 0 | 0 | 0 | 0 | 0 | – | – | – | – | – | – | – | –
QSGLSIVMP | 30 | 0 | 34 | 0 | 0 | 0 | 0 | 43 | – | – | – | – | – | – | – | –
LDPSQGMGP | 41 | 12 | 32 | 0 | 0 | 43 | 12 | 18 | – | – | – | – | – | – | – | –
MGPSLIGLA | 68 | 0 | 15 | 0 | 0 | 5 | 41 | 14 | – | – | – | – | – | – | – | –
